Like-named read-outs stand apart in the source and are kept apart here.
Legend:
SMN2 mRNA = assay: RT-qPCR splicing assay, SMN2 mRNA; format: cell-based, human; settings: Homo sapiens, canonical junction qPCR panel, Table 4; read-out: SMN2 IC50 (decrease in CJ mRNA levels)
Summary of the method: (§1)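 A673 or K562 cells treated 24 h at 37 °C with an 11-point 3-fold dilution series (top 10 uM, DMSO ≤0.25%). Lysates went directly to one-step RT-qPCR quantifying canonical (CJ) and alternative-exon (AJ) junctions, normalized to GAPDH, GUSB or PPIA. Values from ΔΔCt versus DMSO, RQ = 2^(−ΔΔCt), expressed as percentage response.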

Target C = assay: RT-qPCR canonical junction panel assay, Target C mRNA; format: cell-based; settings: Table 4, read-out: Target C IC50 (decrease in CJ mRNA levels)
Summary of the method: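 A673 or K562 cells treated with compound; CJ mRNA quantified by junction-spanning RT-qPCR probe after cDNA synthesis, normalised to GAPDH, GUSB or PPIA and DMSO (2^−ΔΔCt), scaled to set ΔCt assay window; IC50 from 4-parameter fit of CJ decrease.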

HTT mRNA = assay: RT-qPCR splicing assay, HTT mRNA canonical (CJ) and alternative (AJ) junction; format: cell-based, human; settings: Homo sapiens; for AC50: HTT alternative junction mRNA, read-out: HTT AJ (increase in AJ mRNA, AC50)
Summary of the method: as §1

K562 cells = assay: Cell Titer Glo 2.0 cell viability (toxicity) assay, K562; settings: 500 cells/well, 72 hours
MYB mRNA = assay: RT-qPCR splicing assay, MYB mRNA canonical (CJ) and alternative (AJ) junction; format: cell-based, human; settings: Homo sapiens; for AC50: MYB alternative junction mRNA, read-out: MYB AJ (increase in AJ mRNA, AC50)
Summary of the method: as §1

[1] = HTT canonical junction mRNA, RT-qPCR, read-out: HTT CJ (decrease in CJ mRNA levels, IC50)
[2] = canonical junction qPCR panel, Table 4, read-out: HTT IC50 (decrease in CJ mRNA levels)
[3] = MYB canonical junction mRNA, RT-qPCR, read-out: MYB CJ (decrease in CJ mRNA levels, IC50)
[4] = canonical junction qPCR panel, Table 4, read-out: MYB IC50 (decrease in CJ mRNA levels)

Row | Structure (SMILES) | IC50 (SMN2 mRNA) [µM] | IC50 (Target C) [µM] | AC50 (HTT mRNA; RT-qPCR) [µM] | IC50 (HTT mRNA; [1]) [µM] | IC50 (HTT mRNA; [2]) [µM] | Effect of Exemplary Compounds on Cell Viability, K562 (K562 cells) | AC50 (MYB mRNA; RT-qPCR) [µM] | IC50 (MYB mRNA; [3]) [µM] | IC50 (MYB mRNA; [4]) [µM]
1 | Cc1nc2cc(O)c(-c3ccc4nc(N5CCC(NC(C)(C)C)CC5)ccc4n3)cc2o1 [Compound 412] | 0.1 to 1 | 0.1 to 1 | 0.1 to 1 | 0.1 to 1 | 0.1 to 1 | B (B represents 100-1000 nM) | 0.1 to 1 | 0.1 to 1 | 0.1 to 1
2 | Cc1nc2cc(O)c(-c3ccc4nc(N5CC[C@@H](NC(C)(C)C)C5)ncc4n3)cc2o1 [Compound 413, 6-{2-[(3R)-3-(tert-butylamino)pyrrolidin-1-yl]pyrido[3,2-d]pyrimidin-6-yl}-2-methyl-1,3-benzoxazol-5-ol] | < 0.1 | < 0.1 | < 0.1 | < 0.1 | < 0.1 | B (B represents 100-1000 nM) | < 0.1 | < 0.1 | < 0.1
3 | Cc1nc2cc(O)c(-c3ccc4nc(N5CC[C@H](NC(C)(C)C)C5)ncc4n3)cc2o1 [Compound 414, 6-{2-[(3S)-3-(tert-butylamino)pyrrolidin-1-yl]pyrido[3,2-d]pyrimidin-6-yl}-2-methyl-1,3-benzoxazol-5-ol] | 0.1 to 1 | 1 to 10 | 0.1 to 1 | < 0.1 | < 0.1 | B (B represents 100-1000 nM) | 1 to 10 | 1 to 10 | 1 to 10
4 | Cc1nc2c(C)c(O)c(-c3ccc4nc(N5CC[C@H](NC(C)C)C5)ncc4n3)cc2o1 [Compound 416, 6-{2-[(3S)-3-(isopropylamino)pyrrolidin-1-yl]pyrido[3,2-d]pyrimidin-6-yl}-2,4-dimethyl-1,3-benzoxazol-5-ol] | < 0.1 | < 0.1 | < 0.1 | < 0.1 | < 0.1 | A (A represents <100 nM) | < 0.1 | < 0.1 | < 0.1
5 | Cc1nc2cc(O)c(-c3ccc4cc(N5CC[C@@H](NC(C)(C)C)C5)ncc4n3)cc2o1 [Compound 417] | < 0.1 | 1 to 10 | 1 to 10 | 0.1 to 1 | 0.1 to 1 | B (B represents 100-1000 nM) | 0.1 to 1 | 0.1 to 1 | 0.1 to 1
6 | Cc1nc2cc(O)c(-c3ccc4nc(N5CCN[C@@H](C6CC6)C5)ccc4n3)cc2o1 [Compound 418] | 0.1 to 1 | 0.1 to 1 | 0.1 to 1 | 0.1 to 1 | 0.1 to 1 | B (B represents 100-1000 nM) | 0.1 to 1 | 0.1 to 1 | 0.1 to 1
7 | Cc1nc2cc(O)c(-c3ccc4nc(N5C[C@@H](C)N[C@@H](C6CC6)C5)ccc4n3)cc2o1 [Compound 419] | < 0.1 | 0.1 to 1 | 0.1 to 1 | 0.1 to 1 | 0.1 to 1 | B (B represents 100-1000 nM) | 0.1 to 1 | 0.1 to 1 | 0.1 to 1
8 | Cc1nc2cc(O)c(-c3ccc4nc(N5C[C@@H](C)N[C@@H](C)C5)ccc4n3)cc2o1 [Compound 420] | < 0.1 | 1 to 10 | 1 to 10 | 0.1 to 1 | 0.1 to 1 | B (B represents 100-1000 nM) | 0.1 to 1 | 0.1 to 1 | 0.1 to 1
